Tests used:
[1] = target: Platelet-derived growth factor receptor beta (Homo sapiens, UniProt P09619); assay: Inhibition of PDGFRbeta
[2] = target: T1, Epidermal growth factor receptor (Homo sapiens, UniProt P00533); assay: cell-based
A-431 = assay: cells; conditions: Homo sapiens
[3] = target: Vascular endothelial growth factor receptor 1 (Homo sapiens, UniProt P17948); assay: cell-based
[4] = target: T2, Vascular endothelial growth factor receptor 2 (Homo sapiens, UniProt P35968); assay: cell-based
T2 sequence (P35968 whole entry): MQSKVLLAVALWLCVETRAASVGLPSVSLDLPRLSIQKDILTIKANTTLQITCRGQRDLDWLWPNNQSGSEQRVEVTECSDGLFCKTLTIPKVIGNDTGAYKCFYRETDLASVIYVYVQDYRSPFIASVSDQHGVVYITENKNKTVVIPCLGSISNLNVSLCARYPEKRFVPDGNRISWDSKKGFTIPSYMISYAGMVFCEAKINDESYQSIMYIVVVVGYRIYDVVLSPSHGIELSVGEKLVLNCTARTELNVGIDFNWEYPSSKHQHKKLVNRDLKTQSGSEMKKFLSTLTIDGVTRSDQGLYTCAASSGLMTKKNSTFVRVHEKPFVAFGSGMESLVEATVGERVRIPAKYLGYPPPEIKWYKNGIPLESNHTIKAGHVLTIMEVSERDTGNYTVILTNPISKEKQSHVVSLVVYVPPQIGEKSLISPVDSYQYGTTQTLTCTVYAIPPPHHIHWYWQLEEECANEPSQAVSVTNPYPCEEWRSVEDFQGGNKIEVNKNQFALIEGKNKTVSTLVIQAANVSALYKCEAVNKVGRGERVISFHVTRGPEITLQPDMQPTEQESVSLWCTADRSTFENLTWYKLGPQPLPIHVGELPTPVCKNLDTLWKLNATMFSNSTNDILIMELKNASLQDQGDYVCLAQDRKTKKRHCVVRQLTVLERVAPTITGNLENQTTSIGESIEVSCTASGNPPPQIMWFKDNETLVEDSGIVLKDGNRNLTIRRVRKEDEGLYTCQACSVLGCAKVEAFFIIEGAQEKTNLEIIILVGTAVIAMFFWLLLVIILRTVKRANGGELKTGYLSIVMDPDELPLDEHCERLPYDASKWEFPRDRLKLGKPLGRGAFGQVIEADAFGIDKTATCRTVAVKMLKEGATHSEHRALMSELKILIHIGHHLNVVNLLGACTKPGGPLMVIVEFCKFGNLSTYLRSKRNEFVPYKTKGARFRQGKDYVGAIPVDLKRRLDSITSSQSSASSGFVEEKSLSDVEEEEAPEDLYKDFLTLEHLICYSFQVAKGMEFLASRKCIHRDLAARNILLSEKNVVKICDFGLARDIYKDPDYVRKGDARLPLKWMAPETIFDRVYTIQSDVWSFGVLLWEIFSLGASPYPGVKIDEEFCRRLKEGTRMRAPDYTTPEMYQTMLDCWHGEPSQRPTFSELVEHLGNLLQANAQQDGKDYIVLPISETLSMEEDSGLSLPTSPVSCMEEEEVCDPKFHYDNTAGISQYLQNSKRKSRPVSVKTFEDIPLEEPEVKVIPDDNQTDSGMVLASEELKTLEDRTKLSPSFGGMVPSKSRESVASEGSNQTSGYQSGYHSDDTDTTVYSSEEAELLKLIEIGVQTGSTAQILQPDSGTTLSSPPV

[5] = test system: chorioallantoic membrane (Gallus gallus); assay: cells; conditions: Homo sapiens, A-431
[6] = target: T1, Epidermal growth factor receptor
[7] = target: T2, Vascular endothelial growth factor receptor 2

T1 sequence (P00533 whole entry): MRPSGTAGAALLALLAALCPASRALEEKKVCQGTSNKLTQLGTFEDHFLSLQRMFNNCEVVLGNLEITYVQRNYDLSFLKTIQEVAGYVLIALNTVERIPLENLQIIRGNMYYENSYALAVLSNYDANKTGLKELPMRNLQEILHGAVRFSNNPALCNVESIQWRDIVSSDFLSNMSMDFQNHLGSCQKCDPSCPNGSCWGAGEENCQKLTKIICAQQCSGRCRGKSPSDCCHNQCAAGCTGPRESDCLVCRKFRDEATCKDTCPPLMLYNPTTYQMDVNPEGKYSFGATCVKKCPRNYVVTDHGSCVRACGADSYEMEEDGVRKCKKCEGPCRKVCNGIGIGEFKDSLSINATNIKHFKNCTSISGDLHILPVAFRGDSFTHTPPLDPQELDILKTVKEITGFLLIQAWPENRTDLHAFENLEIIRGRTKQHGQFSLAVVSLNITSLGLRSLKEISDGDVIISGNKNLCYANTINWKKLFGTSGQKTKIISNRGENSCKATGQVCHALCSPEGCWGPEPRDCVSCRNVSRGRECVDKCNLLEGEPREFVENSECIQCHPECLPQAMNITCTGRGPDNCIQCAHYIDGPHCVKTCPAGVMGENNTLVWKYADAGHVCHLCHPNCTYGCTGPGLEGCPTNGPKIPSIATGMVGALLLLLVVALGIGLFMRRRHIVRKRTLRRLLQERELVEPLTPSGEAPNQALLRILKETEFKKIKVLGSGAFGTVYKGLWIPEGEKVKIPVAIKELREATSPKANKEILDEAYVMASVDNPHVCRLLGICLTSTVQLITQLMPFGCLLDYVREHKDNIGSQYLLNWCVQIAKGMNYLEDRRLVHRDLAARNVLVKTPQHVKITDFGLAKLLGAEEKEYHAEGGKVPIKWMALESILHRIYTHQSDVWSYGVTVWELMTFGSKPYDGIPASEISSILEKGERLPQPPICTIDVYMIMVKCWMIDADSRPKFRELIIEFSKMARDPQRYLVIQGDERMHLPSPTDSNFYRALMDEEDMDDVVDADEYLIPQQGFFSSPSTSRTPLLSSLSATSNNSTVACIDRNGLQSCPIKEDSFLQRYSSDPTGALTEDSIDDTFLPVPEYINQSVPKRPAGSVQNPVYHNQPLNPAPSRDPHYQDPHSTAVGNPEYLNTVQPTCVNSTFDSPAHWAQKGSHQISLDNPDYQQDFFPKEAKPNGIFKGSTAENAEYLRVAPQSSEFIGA
Platelet-derived growth factor receptor beta, sequence (P09619 whole entry): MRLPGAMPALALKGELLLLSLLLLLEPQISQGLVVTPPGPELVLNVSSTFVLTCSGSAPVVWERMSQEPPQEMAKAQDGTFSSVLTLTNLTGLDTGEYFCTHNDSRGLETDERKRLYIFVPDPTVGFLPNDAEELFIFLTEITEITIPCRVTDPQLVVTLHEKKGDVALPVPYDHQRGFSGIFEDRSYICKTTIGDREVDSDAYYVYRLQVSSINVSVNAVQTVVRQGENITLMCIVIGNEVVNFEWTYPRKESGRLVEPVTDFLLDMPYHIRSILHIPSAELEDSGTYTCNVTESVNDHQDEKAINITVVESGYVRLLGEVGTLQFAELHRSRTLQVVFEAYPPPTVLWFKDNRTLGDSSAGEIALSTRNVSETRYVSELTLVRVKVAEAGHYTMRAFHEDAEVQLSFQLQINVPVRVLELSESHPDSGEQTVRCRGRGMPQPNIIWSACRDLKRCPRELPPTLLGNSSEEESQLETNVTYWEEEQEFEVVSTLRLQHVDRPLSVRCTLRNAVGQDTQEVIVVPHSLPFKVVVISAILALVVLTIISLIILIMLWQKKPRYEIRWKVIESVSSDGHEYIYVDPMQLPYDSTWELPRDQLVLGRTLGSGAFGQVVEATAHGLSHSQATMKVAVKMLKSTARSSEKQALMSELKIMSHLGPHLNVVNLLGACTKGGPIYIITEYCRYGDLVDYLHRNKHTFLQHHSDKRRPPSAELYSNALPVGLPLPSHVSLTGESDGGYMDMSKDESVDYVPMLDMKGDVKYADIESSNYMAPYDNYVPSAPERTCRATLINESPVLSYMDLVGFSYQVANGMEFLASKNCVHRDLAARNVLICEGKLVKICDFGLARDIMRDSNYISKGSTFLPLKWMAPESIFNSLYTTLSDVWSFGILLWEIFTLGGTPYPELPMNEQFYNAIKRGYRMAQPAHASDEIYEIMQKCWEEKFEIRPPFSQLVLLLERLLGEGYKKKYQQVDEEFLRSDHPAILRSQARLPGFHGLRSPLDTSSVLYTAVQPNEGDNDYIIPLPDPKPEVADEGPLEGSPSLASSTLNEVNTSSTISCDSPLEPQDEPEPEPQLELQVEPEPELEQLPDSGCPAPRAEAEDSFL
Vascular endothelial growth factor receptor 1, sequence (P17948 whole entry): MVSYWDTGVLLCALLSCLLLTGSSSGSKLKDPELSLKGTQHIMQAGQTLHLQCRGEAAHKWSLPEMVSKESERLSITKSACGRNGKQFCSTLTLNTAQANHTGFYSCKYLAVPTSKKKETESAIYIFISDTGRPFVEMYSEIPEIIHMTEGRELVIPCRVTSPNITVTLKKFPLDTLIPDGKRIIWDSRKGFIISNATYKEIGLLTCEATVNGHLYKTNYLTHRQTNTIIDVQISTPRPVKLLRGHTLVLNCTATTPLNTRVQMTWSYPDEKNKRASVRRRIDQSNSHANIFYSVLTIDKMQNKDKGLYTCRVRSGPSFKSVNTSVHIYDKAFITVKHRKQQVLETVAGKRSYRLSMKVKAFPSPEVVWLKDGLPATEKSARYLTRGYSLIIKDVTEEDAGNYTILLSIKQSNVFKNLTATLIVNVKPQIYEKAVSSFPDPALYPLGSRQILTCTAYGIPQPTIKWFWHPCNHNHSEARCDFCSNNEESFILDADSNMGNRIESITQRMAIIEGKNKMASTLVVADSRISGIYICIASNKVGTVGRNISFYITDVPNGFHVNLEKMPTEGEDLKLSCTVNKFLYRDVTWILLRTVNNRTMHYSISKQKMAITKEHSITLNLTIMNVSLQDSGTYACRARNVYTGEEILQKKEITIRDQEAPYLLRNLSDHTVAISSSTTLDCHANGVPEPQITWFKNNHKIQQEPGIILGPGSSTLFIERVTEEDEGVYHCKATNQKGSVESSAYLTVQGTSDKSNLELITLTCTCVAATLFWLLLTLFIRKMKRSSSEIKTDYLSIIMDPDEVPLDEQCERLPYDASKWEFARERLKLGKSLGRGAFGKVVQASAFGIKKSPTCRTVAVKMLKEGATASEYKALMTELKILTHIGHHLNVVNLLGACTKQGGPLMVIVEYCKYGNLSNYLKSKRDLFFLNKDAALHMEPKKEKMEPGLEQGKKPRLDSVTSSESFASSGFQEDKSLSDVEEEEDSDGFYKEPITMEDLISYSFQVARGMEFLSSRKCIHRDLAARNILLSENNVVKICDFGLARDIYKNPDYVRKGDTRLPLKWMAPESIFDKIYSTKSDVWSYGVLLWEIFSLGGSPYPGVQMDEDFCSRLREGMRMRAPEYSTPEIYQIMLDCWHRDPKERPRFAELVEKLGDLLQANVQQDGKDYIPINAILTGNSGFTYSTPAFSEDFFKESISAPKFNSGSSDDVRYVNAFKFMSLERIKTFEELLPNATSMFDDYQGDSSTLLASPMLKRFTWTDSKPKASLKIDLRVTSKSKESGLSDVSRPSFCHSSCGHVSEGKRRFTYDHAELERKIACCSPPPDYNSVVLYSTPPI

SMILES	IC50 [1] [µM]	IC50 [2] [µM]	IC50 (A-431) [µM]	IC50 [3] [µM]	IC50 [4] [µM]	IC50 [6] [µM]	IC50 [7] [µM]	IC50 [5] [µM]
Nc1nc(Nc2cccc(Br)c2)c2cc(CCc3ccccc3)[nH]c2n1								19.5
Fc1ccc(Nc2ncnc3[nH]c(CCc4ccccc4)cc23)cc1Br	192	> 200	> 500	> 200	25.2			
c1ccc(CCc2cc3c(Nc4ccc5[nH]ccc5c4)ncnc3[nH]2)cc1	104	56.1		224	31.6			
Nc1nc(Nc2ccc(F)c(Br)c2)c2cc(CCc3ccccc3)[nH]c2n1						22.8	132	
Brc1cccc(Nc2ncnc3[nH]c(CCc4ccccc4)cc23)c1	8.5	> 200	> 500	129	112			
Fc1cc(Cl)ccc1Nc1ncnc2[nH]c(CCc3ccccc3)cc12	> 500	> 200		> 200	40.5			

Further lines, with some results ahead:

IC50 [1] [µM]	IC50 [2] [µM]	IC50 (A-431) [µM]	IC50 [3] [µM]	IC50 [4] [µM]	IC50 [6] [µM]	IC50 [7] [µM]	SMILES	IC50 [5] [µM]
> 500	> 200	> 500	164	57.5			Fc1ccc(Nc2ncnc3[nH]c(CCc4ccccc4)cc23)cc1C(F)(F)F	
> 500	> 200	> 500	> 200	22.1			FC(F)(F)c1cccc(Nc2ncnc3[nH]c(CCc4ccccc4)cc23)c1	
> 500	> 200	> 500	142	49.4			C#Cc1cccc(Nc2ncnc3[nH]c(CCc4ccccc4)cc23)c1	

Reference: ChEMBL document CHEMBL1157122, “The contribution of a 2-amino group on receptor tyrosine kinase inhibition and antiangiogenic activity in 4-anilinosubstituted pyrrolo[2,3-d]pyrimidines” (Bioorg Med Chem Lett, 2010)
